Assay results taken from patent publication US20110028495A1, “THE USE OF 6-HALOGENO-[1,2,4]-TRIAZOLO-[1,5-a]-PYRIMIDINE COMPOUNDS FOR COMBATING PESTS IN AND ON ANIMALS” (priority 2007, published 2011).

Assays:
Caenorhabditis elegans = experiment: Activity against Caenorhabditis elegans (L1 larval motility); conditions: L1 C. elegans, dose response assay, read-out: EC50 (reduction in motility of L1 larvae)
Description: B.2 Activity Against Caenorhabditis elegans
(§1) The compounds were formulated in 100% DMSO and were tested in microtiter plates containing 50 μl nematode growth media, 1% E. coli and 20 L1 C. elegans. The efficacy of a compound was determined based on the motility of the larvae as compared to average motility of control wells containing DMSO only. Compounds with >80% reduction in motility were tested in a dose response assay to determine EC50 values.

[1] = tested on: Cat flea (Ctenocephalides felis); experiment: Ingestion assay with Ctenocephalides felis (treated cow blood); conditions: po, adult C. felis fed treated cow blood, 72 hours post treatment, read-out: EC50 (mortality of C. felis)
Description: B.5 Activity Against Cat Flea (Ctenocephalides felis)
B.5.1 Ingestion Assay with Ctenocephalides felis
The compounds were formulated in 100% DMSO and were diluted with fresh cow blood to final testing concentrations of 50 ppm, 12.5 ppm, 3.125 ppm, 0.78 ppm and 0.195 ppm. Ten adult C. felis were loaded into testing cages and exposed to blood containing the test compound for up to 72 hours. Blood was changed at 24 hour intervals until the test was completed and kept at 37° C. for duration of the test. The efficacy of a compound was determined based on mortality of C. felis at 72 hours post treatment.

[2] = tested on: Mediterranean fruitfly (Ceratitis capitata); experiment: Activity against Mediterranean fruitfly (eggs/hatched larvae, microtiter plate); conditions: 144 h, eggs sprayed, 6 days, compared to 0% mortality of untreated controls
Description: B.1 Activity Against Mediterranean Fruitfly (Ceratitis capitata)
The compounds were formulated in 1:3 DMSO:water. 50 to 80 eggs were placed into microtiterplates filled with 0.5% agar-agar and 14% diet in water. The eggs were sprayed with 5 μl of the test solution, the plates were sealed with pierced foils and kept at 27-29° C. and 75-85% humidity under fluorescent light for 6 days. Mortality was assessed on the basis of the agility of the hatched larvae. Tests were replicated 2 times.

brown dog ticks = experiment: Efficacy against ticks in dogs (spot-on); assay type: in vivo, brown dog ticks on dogs; conditions: 20 mg/kg, days 9, 16 and 23, compared to the placebo group
Excerpt: (§2) B.7 Study to Evaluate Efficacy of Compounds Against Fleas and Ticks in Dogs
(§3) Dogs were infested with 100 cat fleas on days −1, 8, 15, 22, 29, and 36, and 50 brown dog ticks on days −1, 7 14, 21, 28, and 35. Infested dogs receive a treatment of a compound or placebo in the form of spot-on applied at the middle of the neck between the shoulder blades. Live fleas and ticks were removed and counted on days 2, 9, 16, 23, 30, and 37.

cat fleas = experiment: Efficacy against fleas in dogs (spot-on); assay type: in vivo, cat fleas on dogs; conditions: 20 mg/kg, days 9, 16 and 23, compared to the placebo group
Excerpt: as §2, §3

[3] = tested on: Yellowfever mosquito (Aedes aegypti); experiment: Activity against yellowfever mosquito (neonate larval motility); conditions: neonate A. aegypti larvae, dose response assay
Description: B.4. Activity Against Yellowfever Mosquito (Aedes aegypti)
as §1, with “180 ul X Luria Broth media” for “50 μl nematode growth media, 1% E. coli”, “10 neonate A. aegypti larvae.” for “20 L1 C. elegans.”

CCc1nc2ncnn2c(NC(C)c2ccc(-c3ccccc3)cc2)c1Cl (racemic) [C.I.59]
EC50 (Caenorhabditis elegans): < 10 µg/mL

Cc1nc2ncnn2c(NCc2ccc(Oc3ccc(Cl)cc3)cc2)c1Cl [C.I.10]
EC50 (Caenorhabditis elegans): < 10 µg/mL
LC50 [1]: < 50 µg/mL

CCc1nc2nc(C)nn2c(N[C@H]2CC[C@@H](C(C)(C)C)CC2)c1Cl [C.I.55]
mortality at 2500 ppm [2]: > 75%

Cc1nc2ncnn2c(N[C@@H](C)c2ccc3ccccc3c2)c1Cl [C.I.37]
LC50 [1]: < 50 µg/mL

CCc1nc2ncnn2c(NC(CC)c2ccc(OC(F)(F)C(F)C(F)(F)F)cc2)c1Cl (stereo not shown) [C.I.53]
mortality at 2500 ppm [2]: > 75%

CCc1nc2ncnn2c(N[C@@H](C)c2ccc(Cl)cc2)c1Cl [C.I.22]
mortality at 2500 ppm [2]: > 75%

Cc1nc2ncnn2c(N[C@@H](C)c2ccc(OC(F)(F)C(F)F)cc2)c1Cl [C.I.40]
EC50 (Caenorhabditis elegans): < 10 µg/mL

Cc1nc2ncnn2c(NC2CCC(C(C)C)CC2)c1Cl (stereo not shown) [C.I.2]
EC50 (Caenorhabditis elegans): < 10 µg/mL

CCc1nc2ncnn2c(NC2CCC(C(C)CC)CC2)c1Cl (stereo not shown) [C.I.18]
LC50 [1]: < 50 µg/mL

CCC(C)[C@H]1CC[C@@H](Nc2c(Cl)c(C)nc3ncnn23)CC1 (stereo partly shown) [C.I.5]
LC50 [1]: < 50 µg/mL

CCc1nc2nc([S+](C)[O-])nn2c(N[C@@H](C)c2ccc(C)cc2)c1Cl (stereo partly shown) [C.I.56]
EC50 (Caenorhabditis elegans): < 10 µg/mL

Cc1nc2ncnn2c(NC(C)c2ccc(OC(F)(F)CF)cc2)c1Cl (racemic) [C.I.38]
mortality at 2500 ppm [2]: > 75%
LC50 [1]: < 50 µg/mL

Cc1nc2ncnn2c(N[C@H]2CC[C@@H](C(F)(C(F)(F)F)C(F)(F)F)CC2)c1Cl [C.I.34]
EC50 (Caenorhabditis elegans): < 10 µg/mL
LC50 [1]: < 50 µg/mL

CCc1nc2ncnn2c(N[C@@H](C)c2ccc(Br)cc2)c1Cl [C.I.23]
EC50 (Caenorhabditis elegans): < 10 µg/mL

CCc1nc2ncnn2c(N[C@H]2CC[C@@H](C(C)(C)C)CC2)c1Cl [C.I.20]
efficacy against ticks (brown dog ticks): > 80%
efficacy against fleas (cat fleas): > 80%
LC50 [1]: < 50 µg/mL

CCc1nc2ncnn2c(N[C@H]2CC[C@@H](C(F)(C(F)(F)F)C(F)(F)F)CC2)c1Cl [C.I.46]
EC50 (Caenorhabditis elegans): < 10 µg/mL

CCc1nc2ncnn2c(NC(C)c2ccc(OC(F)(F)CF)cc2)c1Cl (racemic) [C.I.49]
mortality at 2500 ppm [2]: > 75%

CCc1nc2ncnn2c(N[C@H]2CC[C@@H](CCC(F)(F)F)CC2)c1Cl [C.I.45]
EC50 (Caenorhabditis elegans): < 10 µg/mL

CCc1nc2ncnn2c(NC2CCC(C(C)C)CC2)c1Cl (stereo not shown) [C.I.17]
LC50 [1]: < 50 µg/mL

Cc1nc2ncnn2c(NCc2ccc(Oc3ccc(Cl)c(Cl)c3)cc2)c1Cl [C.I.12]
EC50 (Caenorhabditis elegans): < 10 µg/mL

CCc1nc2ncnn2c(N[C@@H](C)c2cccc(OCc3ccccc3)c2)c1Cl [C.I.58]
EC50 (Caenorhabditis elegans): < 10 µg/mL

Cc1nc2ncnn2c(NC2CCC(C)CC2)c1Cl (stereo not shown) [C.I.1]
EC50 (Caenorhabditis elegans): < 10 µg/mL

Cc1nc2ncnn2c(NCc2ccc(Oc3ccc(Br)cc3)cc2)c1Cl [C.I.11]
EC50 (Caenorhabditis elegans): < 10 µg/mL
LC50 [1]: < 50 µg/mL

CCC(Nc1c(Cl)c(C)nc2ncnn12)c1ccc(OC(F)(F)C(F)C(F)(F)F)cc1 (stereo not shown) [C.I.43]
EC50 (Caenorhabditis elegans): < 10 µg/mL
mortality at 2500 ppm [2]: > 75%

CCc1nc2ncnn2c(NCCc2ccc(OC(F)(F)F)cc2)c1Cl [C.I.32]
EC50 (Caenorhabditis elegans): < 10 µg/mL

CCc1nc2ncnn2c(N[C@@H](C)c2ccc(OC(F)F)cc2)c1Cl [C.I.31]
EC50 (reduction in motility of larvae) [3]: < 1 ppm
LC50 [1]: < 50 µg/mL
